Laboratory results from PMC5766510, “Development of a PET radioligand for potassium channels to image CNS demyelination” (Scientific Reports, 2018).
Like-named read-outs stand apart in the source and are kept apart here. Values belong to the molecule of their own block, whether it stands above or below them.

Tests used:
[1] = tested on: voltage-gated K^+ channels in demyelinated axons; assay type: in vivo
Source text: Thirty minutes post-injection of the radiolabeled drug, the mice were euthanized and their brains dissected without perfusion to prevent washout of the drug. After dissection, the brains were frozen, cut into thin sections and collected on glass slides. The brain slices were then apposed to autoradiography film to reveal the distribution of the drug in the brain at the time of death. After autoradiography, the same brain sections were stained with the myelin-specific dye Luxol fast blue (LFB).
Number of animals per group was determined using statistical power analysis (α = 0.05, power = 0.80). […] The brains were embedded in Optimal Cutting Temperature (Tissue-Tek), frozen in dry ice and stored at −80 °C. Frozen brains were sliced in a cryostat at 20 μm thickness, the sections mounted on Superfrost Plus slides (Fisher) and allowed to dry at room temperature for at least 30 min. Next, the slides were placed in a cassette in front of autoradiography film (Denville scientific) sealed in the dark at −80 °C for 14–21 days. After that time the cassette was allowed to warm up to room temperature and the films developed inside a dark room using a film processor (Konica). The films were then scanned using an EPSON Perfection V750 scanner (Positive film mode, 8-bit grayscale, 1,200 dpi). After digitizing the radiographs, the same slides were stained using Luxol fast blue (LFB) and cresyl violet. For [^18F]3-F-4-AP autoradiography in rats we injected 1–2 μCi per g. After euthanasia, the brains were dissected without perfusion, frozen in dry ice and sliced in a cryostat at −20 °C.
1 min) and left in LFB solution (0.1 g LFB, 100 mL of 95% EtOH, 0.5 mL glacial acetic acid) overnight at 56 °C. Next morning, the slides were rinsed in 95% EtOH and ddH2O to remove the excess of dye, differentiated in lithium carbonate solution (0.05 g in 100 mL) for 30 s, 70% EtOH for 30 s and rinsed in ddH2O. The differentiation steps were repeated until the gray matter was clear and the white matter appeared blue and sharply defined. Afterwards, the slides were counterstained in cresyl violet (0.1 g in 100 mL of ddH2O, 0.1 mL acetic acid) for 30 s. The slides were differentiated in 95 % EtOH for 5 min and dehydrated (100% EtOH, 2x 5 min ea; 100 % xylene, 2 x, 5 min ea) before mounting with permount (Electron Microscopy Sciences). After staining, images of the slides were collected using the CRi Pannoramic Whole Slide Scanner (Perkin Elmer) equipped with a 20x objective.
Image analysis: The histology images were superimposed on the autoradiography images using Photoshop. The histology images were used to precisely outline the corpus callosum, the cortex and a ~1.5 mm-wide area around the brain (background). The autoradiographic signal from each area was quantified. The background signal was subtracted from the all the areas and defined as zero. The signal intensity of the cortex was set as 1.0 and the signal intensity of the corpus callosum was measured relative to the cortex. Color images were created using the 6-shades look up table (LUT) in ImageJ. […]

[2] = target: non-inactivating Shaker channel from D. melanogaster (Drosophila melanogaster, UniProt P08510, DEL6-46); test: cell-based
Experimental: See SI for additional details.
(§1) CI95 = [Upper Limit. Lower Limit]; where Upper Limit = 10^(logEC50+s.d.) and Lower Limit = 10^(logEC50−s.d.). […]
exchanging the external solution (top and guard chambers) several times. After application, cells were voltage-clamped at least 5 min at 0mV, then voltage-clamped at -80mV for 1-2 min.
K+ currents were generated by applying series of 50 ms pulses from -70 mV to +40 mV in increments of 10 mV. The effect of the drug was assessed by measuring the relative intensity of the K+ current before and after applying varying drug concentration at a constant voltage (typically +20 mV) and at the end of the test-pulse. Data acquisition and analysis of the traces was performed using Gpatch software (Department of Anesthesiology, University of California, […]
Los Angeles). […]

[3] = tested on: K^+ channels in explanted mouse optic nerves; test: Compound action potential (CAP) of dissected mouse optic nerves; settings: for IC50: CAP enhancement, given as IC50; for IC50 / activity in enhancing the CAP: dysmyelinated (Shiverer) optic nerves; for times less potent: from EC50 values, versus 4-AP and 3-F-4-AP
Experimental: Therefore, we tested the effects of these compounds on the compound action potential (CAP) of dysmyelinated optic nerves from control and Shiverer mice (Fig. 2E).
Optic nerves were dissected from 12–16 week old Shiverer (Mbp^shi/shi) and control mice (Mbp^+/shi and Mbp^+/+). Compound action potentials (CAP) were recorded using suction electrodes as described by Stys et al.[91]. See SI for additional details.
as §1
Dissection of optic nerves: Optic nerves were dissected from 12-16 week old Shiverer (Mbpshi/shi) and control mice (Mbp+/shi and Mbp+/+). Mice were euthanized by CO2 overdose and the optic nerves were quickly dissected between the eyeball and the optic chiasm. The nerves […]
Optic nerve electrophysiology: Compound action potentials (CAP) from dysmyelinated nerves (Shiverer mice, Mbpshi/shi) and myelinated nerves (litermate controls, Mbp+/shi and Mbp+/+) were […]
between two suction electrodes (stimulus and recording electrodes) forming a tight seal on each end. Two additional electrodes were placed in the bath for reference. A supramaximal pulse (250 mV, 20 μs) was applied at the stimulating end of the nerve. The resulting CAP was amplified from the recording electrode using a high impedance low-noise amplifier (EG&G Princeton Applied Research Corporation) sampled at 100 kHz and filtered at 10 kHz. To assess […]
concentrations to the recording chamber after the CAP was allowed to stabilize for 5 min while […]
pulsing repeatedly. After each measurement, the chamber was washed for 5 min (flow 1 […]
mL/min) with oxygenated aCSF. […]
conduction and the temperature was monitored throughout the experiment. CAP recordings were acquired with a SBC6711 board (Innovative Integration) controlled by in-house written software. Analysis of the traces was done using an in-house software. The half-maximal […]
amplitude vs. concentration and fitted to the Hill equation using Origin. […]
Compound action potential of nerve recorded by suction electrode: a theoretical and experimental analysis. […]

C57Bl/6 J mice = test: In vivo effects (signs of neuroexcitation) after intraperitoneal injection; settings: mouse, different doses
Experimental: In this experiment, we injected each drug intraperitoneally at different concentrations into mice and looked for signs of neuroexcitation (Fig. 3B).
10-week-old female C57Bl/6 J mice were given an intraperitoneal injection of the drug under investigation and monitored continuously for 4 h. […] At least 72 h passed between injections to the same mice.

in vitro = settings: mouse, microsomes
[4] = relative K^+ current at +20 mV, Hill equation fit, read-out: Half-maximal inhibitory concentration (IC50)

Chain of non-inactivating Shaker channel from D. melanogaster (P08510 other isoform, or with tags, fused parts or gaps DEL6-46): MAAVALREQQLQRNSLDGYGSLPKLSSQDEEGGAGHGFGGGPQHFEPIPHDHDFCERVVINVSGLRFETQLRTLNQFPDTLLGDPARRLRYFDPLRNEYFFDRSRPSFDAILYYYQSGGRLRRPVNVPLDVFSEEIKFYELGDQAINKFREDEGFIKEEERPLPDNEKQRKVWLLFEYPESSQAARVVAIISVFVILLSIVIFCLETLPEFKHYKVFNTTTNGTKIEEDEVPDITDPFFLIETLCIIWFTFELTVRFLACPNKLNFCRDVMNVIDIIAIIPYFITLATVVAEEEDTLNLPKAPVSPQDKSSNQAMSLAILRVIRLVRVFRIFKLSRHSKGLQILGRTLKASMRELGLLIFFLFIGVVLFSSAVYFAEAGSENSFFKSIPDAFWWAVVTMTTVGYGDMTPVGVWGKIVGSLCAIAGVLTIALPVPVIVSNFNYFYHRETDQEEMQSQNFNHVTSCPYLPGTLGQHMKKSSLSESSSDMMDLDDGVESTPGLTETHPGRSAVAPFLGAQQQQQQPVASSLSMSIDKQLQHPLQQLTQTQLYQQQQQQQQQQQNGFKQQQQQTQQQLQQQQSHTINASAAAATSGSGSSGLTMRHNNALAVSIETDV

Compound: Nc1c[14cH]n[14cH]c1F [[^14C]3-F-4-AP, [2,6-^14C]4-amino-3-fluoropyridine]
relative autoradiographic signal intensity in corpus callosum ([1]; Shiverer (Mbp^shi/shi) mice, normalized to cortex): 0.878 ± 0.043 | increase in signal, Shiverer versus control white matter ([1]; corpus callosum): 29% | relative autoradiographic signal intensity in myelinated white matter ([1]; wild-type/control mice, normalized to cortex (gray matter = 1.0)): 0.679 ± 0.046

Compound: Nc1ccncc1CO [3-HOMe-4-AP, 3-hydroxymethyl-4-aminopyridine, reference compound]
IC50 [2]: 4.38 mM | IC50 [3]: 0.386 mM | times less potent [3]: 4–6 times | signs of neuroexcitation, summary in words relative to 4-AP (C57Bl/6 J mice): did not cause any effects at doses up to 20 times greater

Compound: Nc1c[14cH]n[14cH]c1 [[^14C]4-AP, [2,6-^14C]4-aminopyridine, reference compound]
autoradiographic signal in the demyelinated area ([1]; LPC-injected mice, 3 days after injection, normalized to cortex): 0.733 ± 0.047 | autoradiographic signal in the contralateral control area ([1]; LPC-injected mice, opposite hemisphere, normalized to cortex): 0.507 ± 0.070

Compound: Nc1ccncc1CCF [3-FEt-4-AP, 3-fluoroethyl-4-aminopyridine]
IC50 [2]: > 10 mM | activity in enhancing the CAP [3]: inactive

Compound: O=[14CH]C[C@@H](O)[C@H](O)[C@H](O)CO [2-DG, [1-^14C]2-deoxy-D-glucose, reference compound]
difference in brain distribution between wild type and Shiverer mice ([1]; mouse, in vivo): no differences were seen

Compound: Nc1ccncc1CF [3-FMe-4-AP, 3-fluoromethyl-4-aminopyridine]
IC50 [2, 4]: 7.45 mM | IC50 [3]: 0.386 mM | times less potent [3]: 4–6 times | signs of neuroexcitation, summary in words relative to 4-AP (C57Bl/6 J mice): half as potent as 4-AP

Compound: Nc1ccnc(F)c1 [2-F-4-AP, 2-fluoro-4-aminopyridine]
IC50 [2, 4]: > 10 mM | activity in enhancing the CAP [3]: inactive | signs of neuroexcitation, summary in words relative to 4-AP (C57Bl/6 J mice): did not cause any effects at doses up to 20 times greater

half-life (in vitro): 25.6 ± 2.1 min
Compound: CC(C)NCC(O)COc1cccc2ccccc12 (centres unmarked) [Propranolol, propranolol]
